Among the data in US9409916B2, “Piperidinone carboxamide spirohydantoin CGRP receptor antagonists” (Merck Sharp & Dohme Corp., priority 2011, dated 2016) are Ki values, retold here.

For this assay, the target named is T1, recombinant human CL receptor/RAMP1 (Homo sapiens, UniProt O60894+Q16602).
T1 construct: expressed in transfected cells; membranes
T1 sequence (Q16602 23-461): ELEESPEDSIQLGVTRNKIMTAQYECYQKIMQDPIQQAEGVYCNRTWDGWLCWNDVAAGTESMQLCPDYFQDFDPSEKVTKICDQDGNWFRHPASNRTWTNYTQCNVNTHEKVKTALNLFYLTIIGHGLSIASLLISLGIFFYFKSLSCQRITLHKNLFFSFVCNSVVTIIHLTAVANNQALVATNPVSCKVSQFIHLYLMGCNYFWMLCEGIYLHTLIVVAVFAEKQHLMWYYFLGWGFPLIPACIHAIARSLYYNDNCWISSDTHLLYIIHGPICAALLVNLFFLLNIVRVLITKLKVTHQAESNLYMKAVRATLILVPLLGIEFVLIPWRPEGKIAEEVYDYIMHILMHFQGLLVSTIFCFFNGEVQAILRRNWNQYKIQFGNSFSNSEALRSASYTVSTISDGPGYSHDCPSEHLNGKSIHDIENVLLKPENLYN
T1 sequence (O60894 27-148): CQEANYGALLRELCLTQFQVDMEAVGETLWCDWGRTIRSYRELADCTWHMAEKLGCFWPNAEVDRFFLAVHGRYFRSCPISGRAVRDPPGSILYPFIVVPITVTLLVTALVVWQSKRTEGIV
Kind of assay: Recombinant receptor binding assay (125I-hCGRP). Particulars: membranes of HEK 293 cells expressing human CL receptor/RAMP1, 10 pM 125I-hCGRP. As for the experimental part: RECOMBINANT RECEPTOR: Human CL receptor (Genbank accession number L76380) was subcloned into the expression vector pIREShyg2 (BD Biosciences Clontech) as a 5′NheI and 3′ PmeI fragment. Human RAMP1 (Genbank accession number AJ001014) was subcloned into the expression vector pIRESpuro2 (BD Biosciences Clontech) as a 5′NheI and 3′NotI fragment. HEK 293 cells (human embryonic kidney cells; ATCC #CRL-1573) were cultured in DMEM with 4.5 g/L glucose, 1 mM sodium pyruvate and 2 mM glutamine supplemented with 10% fetal bovine serum (FBS), 100 units/mL penicillin and 100 μg/mL streptomycin, and maintained at 37° C. and 95% humidity. Cells were subcultured by treatment with 0.25% trypsin with 0.1% EDTA in HBSS. Stable cell line generation was accomplished by co-transfecting 10 μg of DNA with 30 μg Lipofectamine 2000 (Invitrogen) in 75 cm^2 flasks. CL receptor and RAMP1 expression constructs were co-transfected in equal amounts. Twenty-four hours after transfection the cells were diluted and selective medium (growth medium+300 μg/mL hygromycin and 1 μg/mL puromycin) was added the following day. A clonal cell line was generated by single cell deposition utilizing a FACS Vantage SE (Becton Dickinson). Growth medium was adjusted to 150 μg/mL hygromycin and 0.5 μg/mL puromycin for cell propagation.
RECOMBINANT RECEPTOR BINDING ASSAY: Cells expressing recombinant human CL receptor/RAMP1 were washed with PBS and harvested in harvest buffer containing 50 mM HEPES, 1 mM EDTA and Complete™ protease inhibitors (Roche). The cell suspension was disrupted with a laboratory homogenizer and centrifuged at 48,000 g to isolate membranes. The pellets were resuspended in harvest buffer plus 250 mM sucrose and stored at −70° C. For binding assays, 20 μg of membranes were incubated in 1 mL binding buffer (10 mM HEPES, pH 7.4, 5 mM MgCl2, and 0.2% BSA) for 3 h at room temperature containing 10 pM ^125I-hCGRP (GE Healthcare) and antagonist. The assay was terminated by filtration through 96-well GFB glass fiber filter plates (PerkinElmer) that had been blocked with 0.05% polyethyleneimine. […]
Regarding `C[C@@H]1[C@H](c2c(F)ccc(F)c2F)C[C@H](NC(=O)c2cnc3c(c2)C[C@@]2(C3)C(=O)NC(=O)N2C)C(=O)N1CC(F)(F)F` [Example 1, (6R)-3′-Methyl-N-[(3S,5S,6R)-6-methyl-2-oxo-1-(2,2,2-trifluoroethyl)-5-(2,3,6-trifluorophenyl)piperidin-3-yl]-2′,5′-dioxo-5,7-dihydrospiro[cyclopenta[b]pyridine-6,4′-imidazolidine]-3-carboxamide], the Ki (in general, the equilibrium dissociation constant of an inhibitor or competing ligand from its target) came to 0.061 nM.

Regarding `C[C@@H]1[C@H](c2cc(F)cc(F)c2F)C[C@H](NC(=O)c2cnc3c(c2)C[C@@]2(C3)C(=O)NC(=O)N2C)C(=O)N1CC(F)(F)F` [Example 3], the Ki was determined as 0.28 nM. Next, `C[C@@H]1[C@H](c2c(F)c(F)cc(F)c2F)C[C@H](NC(=O)c2cnc3c(c2)C[C@@]2(C3)C(=O)NC(=O)N2C)C(=O)N1CC(F)(F)F` [Example 2, (6R)-3′-Methyl-N-[(3S,5S,6R)-6-methyl-2-oxo-1-(2,2,2-trifluoroethyl)-5-(2,3,5,6-tetrafluorophenyl)piperidin-3-yl]-2′,5′-dioxo-5,7-dihydrospiro[cyclopenta[b]pyridine-6,4′-imidazolidine]-3-carboxamide]: 0.059 nM.
